Measured values: publication PMC8580319, “Dual activities of ACC synthase: Novel clues regarding the molecular evolution of ACS genes” (Science Advances, 2021)

Assays:
Conditions in all cases: Cβ-S lyase activity; 4 mM L-cystine, 100 μM PLP, 30°C
OsACS1 = molecular target: T1, OsACS1 (Oryza sativa, UniProt A2XLL2); assay: pyruvate formation, […],4-dinitrophenylhydrazine, A520; type: biochemical
T1 construct: gene ACC1; recombinant, His or GST tag, from E. coli
T1 sequence (A2XLL2 1-487): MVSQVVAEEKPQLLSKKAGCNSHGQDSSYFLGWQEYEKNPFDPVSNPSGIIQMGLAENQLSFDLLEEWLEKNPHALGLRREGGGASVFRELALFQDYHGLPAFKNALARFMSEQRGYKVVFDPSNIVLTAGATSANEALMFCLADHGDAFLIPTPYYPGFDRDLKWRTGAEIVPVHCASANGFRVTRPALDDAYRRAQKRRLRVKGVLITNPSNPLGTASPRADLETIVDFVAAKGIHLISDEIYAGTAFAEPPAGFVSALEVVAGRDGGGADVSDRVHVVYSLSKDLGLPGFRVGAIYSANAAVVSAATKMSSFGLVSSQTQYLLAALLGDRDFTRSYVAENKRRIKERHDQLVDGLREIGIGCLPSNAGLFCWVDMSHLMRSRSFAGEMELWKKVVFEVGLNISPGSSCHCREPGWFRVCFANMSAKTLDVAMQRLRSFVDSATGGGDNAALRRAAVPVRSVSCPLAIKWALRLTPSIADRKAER

AtACS6 = molecular target: T2, AtACS6 (Arabidopsis thaliana, UniProt Q9SAR0); assay: as above; type: biochemical
T2 construct: gene ACS6; recombinant, His or GST tag, from E. coli
T2 sequence (Q9SAR0 1-495): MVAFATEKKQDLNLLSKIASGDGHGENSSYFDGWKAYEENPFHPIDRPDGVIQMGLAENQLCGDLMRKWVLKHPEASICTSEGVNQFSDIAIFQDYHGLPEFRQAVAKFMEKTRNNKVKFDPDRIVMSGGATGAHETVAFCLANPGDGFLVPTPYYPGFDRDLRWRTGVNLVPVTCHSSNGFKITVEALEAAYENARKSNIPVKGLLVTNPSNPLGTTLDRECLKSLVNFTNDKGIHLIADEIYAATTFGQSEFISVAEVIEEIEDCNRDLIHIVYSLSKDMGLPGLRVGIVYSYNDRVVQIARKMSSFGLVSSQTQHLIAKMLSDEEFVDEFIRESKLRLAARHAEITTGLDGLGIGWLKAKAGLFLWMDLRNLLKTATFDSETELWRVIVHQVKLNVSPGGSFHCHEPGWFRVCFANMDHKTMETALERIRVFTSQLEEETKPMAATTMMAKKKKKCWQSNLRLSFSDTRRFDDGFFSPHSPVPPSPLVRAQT

AtACS8 = molecular target: T3, AtACS8 (Arabidopsis thaliana, UniProt Q9T065); assay: as above; type: biochemical
T3 construct: gene ACS8; recombinant, His or GST tag, from E. coli
T3 sequence (Q9T065 1-469): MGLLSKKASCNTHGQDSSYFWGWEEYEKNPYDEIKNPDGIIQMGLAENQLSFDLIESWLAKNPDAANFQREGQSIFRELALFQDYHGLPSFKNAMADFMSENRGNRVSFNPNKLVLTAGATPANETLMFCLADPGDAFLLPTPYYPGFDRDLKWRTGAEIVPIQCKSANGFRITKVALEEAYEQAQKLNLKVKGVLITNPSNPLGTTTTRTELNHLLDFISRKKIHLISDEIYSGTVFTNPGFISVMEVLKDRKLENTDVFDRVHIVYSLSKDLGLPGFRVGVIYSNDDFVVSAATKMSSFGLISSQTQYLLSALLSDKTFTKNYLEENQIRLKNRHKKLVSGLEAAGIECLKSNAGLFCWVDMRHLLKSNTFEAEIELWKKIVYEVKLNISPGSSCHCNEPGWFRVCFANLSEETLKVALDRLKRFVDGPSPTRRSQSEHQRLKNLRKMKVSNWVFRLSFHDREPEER

AtACS11 = molecular target: T4, AtACS11 (Arabidopsis thaliana, UniProt Q9S9U6); assay: as above; type: biochemical
T4 construct: gene ACS11; recombinant, His or GST tag, from E. coli
T4 sequence (Q9S9U6 1-460): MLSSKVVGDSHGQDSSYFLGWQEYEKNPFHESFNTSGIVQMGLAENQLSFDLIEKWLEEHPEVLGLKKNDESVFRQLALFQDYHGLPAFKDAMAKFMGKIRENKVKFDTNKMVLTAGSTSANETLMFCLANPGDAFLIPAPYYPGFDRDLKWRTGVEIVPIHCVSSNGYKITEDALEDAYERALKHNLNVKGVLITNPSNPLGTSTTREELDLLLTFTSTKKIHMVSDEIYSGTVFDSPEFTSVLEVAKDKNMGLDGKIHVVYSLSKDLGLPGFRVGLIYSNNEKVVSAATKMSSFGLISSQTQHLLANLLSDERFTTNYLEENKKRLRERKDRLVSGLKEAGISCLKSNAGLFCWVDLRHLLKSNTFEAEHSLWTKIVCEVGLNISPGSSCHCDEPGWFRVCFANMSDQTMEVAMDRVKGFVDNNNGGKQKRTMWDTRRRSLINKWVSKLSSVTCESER

OsACS5 = molecular target: T5, OsACS5 (Oryza sativa, UniProt A0A0P0UZP7)
T5 construct: gene ACS5

MdACS1 = molecular target: T6, MdACS1 (Malus domestica, UniProt P37821); assay: pyruvate formation, […],4-dinitrophenylhydrazine, A520; type: biochemical
T6 construct: gene ACS-1; recombinant, His or GST tag, from E. coli
T6 sequence (P37821 1-473): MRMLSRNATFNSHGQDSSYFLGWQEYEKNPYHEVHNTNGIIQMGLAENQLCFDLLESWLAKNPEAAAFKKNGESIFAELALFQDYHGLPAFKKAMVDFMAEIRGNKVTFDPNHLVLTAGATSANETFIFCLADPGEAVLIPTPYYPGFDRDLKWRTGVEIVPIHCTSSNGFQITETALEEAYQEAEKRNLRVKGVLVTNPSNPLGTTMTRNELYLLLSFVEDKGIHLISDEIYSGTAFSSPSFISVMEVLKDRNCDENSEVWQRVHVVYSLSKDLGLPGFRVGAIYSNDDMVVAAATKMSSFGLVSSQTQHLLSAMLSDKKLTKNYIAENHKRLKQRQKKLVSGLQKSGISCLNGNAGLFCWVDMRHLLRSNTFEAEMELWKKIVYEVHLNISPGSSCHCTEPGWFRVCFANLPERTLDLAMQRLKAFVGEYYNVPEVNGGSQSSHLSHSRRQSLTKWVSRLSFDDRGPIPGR

T5 sequence (A0A0P0UZP7 whole entry): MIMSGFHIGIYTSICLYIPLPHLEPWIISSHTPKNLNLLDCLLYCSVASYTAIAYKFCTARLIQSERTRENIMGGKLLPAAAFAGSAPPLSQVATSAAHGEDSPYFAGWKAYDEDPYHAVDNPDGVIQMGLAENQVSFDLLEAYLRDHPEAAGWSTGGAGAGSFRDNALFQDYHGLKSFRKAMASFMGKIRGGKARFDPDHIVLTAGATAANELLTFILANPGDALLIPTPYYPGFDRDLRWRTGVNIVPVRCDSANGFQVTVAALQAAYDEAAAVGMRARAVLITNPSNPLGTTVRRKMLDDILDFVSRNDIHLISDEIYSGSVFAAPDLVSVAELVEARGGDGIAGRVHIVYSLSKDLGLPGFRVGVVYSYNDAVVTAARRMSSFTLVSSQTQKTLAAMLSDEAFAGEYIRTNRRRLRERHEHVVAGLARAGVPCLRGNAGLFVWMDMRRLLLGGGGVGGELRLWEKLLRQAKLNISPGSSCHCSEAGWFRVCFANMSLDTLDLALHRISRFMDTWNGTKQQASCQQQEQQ

## N[C@@H](CSSC[C@H](N)C(=O)O)C(=O)O [L-cystine]
OsACS1
  pyruvate formation, 2,4-dinitrophenylhydrazine, A520: all of them had ACS and Cβ-S lyase dual enzymatic activities
AtACS6
  pyruvate formation, 2,4-dinitrophenylhydrazine, A520: all of them had ACS and Cβ-S lyase dual enzymatic activities
AtACS8
  pyruvate formation, 2,4-dinitrophenylhydrazine, A520: all of them had ACS and Cβ-S lyase dual enzymatic activities
AtACS11
  pyruvate formation, 2,4-dinitrophenylhydrazine, A520: all of them had ACS and Cβ-S lyase dual enzymatic activities
OsACS5
  pyruvate formation, 2,4-dinitrophenylhydrazine, A520: all of them had ACS and Cβ-S lyase dual enzymatic activities
MdACS1
  pyruvate formation, 2,4-dinitrophenylhydrazine, A520: MdACS1 indeed had both ACS and Cβ-S lyase activities in vitro
